These compounds were tested against bovine cardiac myosin (Bos taurus, UniProt Q9BE39) (assay: Myosin activation assay (PK/LDH-coupled ATPase, bovine cardiac myofibrils)). Details: AC20 = concentration at which total response is increased by twenty percent.
Sequence of bovine cardiac myosin (Q9BE39 whole entry): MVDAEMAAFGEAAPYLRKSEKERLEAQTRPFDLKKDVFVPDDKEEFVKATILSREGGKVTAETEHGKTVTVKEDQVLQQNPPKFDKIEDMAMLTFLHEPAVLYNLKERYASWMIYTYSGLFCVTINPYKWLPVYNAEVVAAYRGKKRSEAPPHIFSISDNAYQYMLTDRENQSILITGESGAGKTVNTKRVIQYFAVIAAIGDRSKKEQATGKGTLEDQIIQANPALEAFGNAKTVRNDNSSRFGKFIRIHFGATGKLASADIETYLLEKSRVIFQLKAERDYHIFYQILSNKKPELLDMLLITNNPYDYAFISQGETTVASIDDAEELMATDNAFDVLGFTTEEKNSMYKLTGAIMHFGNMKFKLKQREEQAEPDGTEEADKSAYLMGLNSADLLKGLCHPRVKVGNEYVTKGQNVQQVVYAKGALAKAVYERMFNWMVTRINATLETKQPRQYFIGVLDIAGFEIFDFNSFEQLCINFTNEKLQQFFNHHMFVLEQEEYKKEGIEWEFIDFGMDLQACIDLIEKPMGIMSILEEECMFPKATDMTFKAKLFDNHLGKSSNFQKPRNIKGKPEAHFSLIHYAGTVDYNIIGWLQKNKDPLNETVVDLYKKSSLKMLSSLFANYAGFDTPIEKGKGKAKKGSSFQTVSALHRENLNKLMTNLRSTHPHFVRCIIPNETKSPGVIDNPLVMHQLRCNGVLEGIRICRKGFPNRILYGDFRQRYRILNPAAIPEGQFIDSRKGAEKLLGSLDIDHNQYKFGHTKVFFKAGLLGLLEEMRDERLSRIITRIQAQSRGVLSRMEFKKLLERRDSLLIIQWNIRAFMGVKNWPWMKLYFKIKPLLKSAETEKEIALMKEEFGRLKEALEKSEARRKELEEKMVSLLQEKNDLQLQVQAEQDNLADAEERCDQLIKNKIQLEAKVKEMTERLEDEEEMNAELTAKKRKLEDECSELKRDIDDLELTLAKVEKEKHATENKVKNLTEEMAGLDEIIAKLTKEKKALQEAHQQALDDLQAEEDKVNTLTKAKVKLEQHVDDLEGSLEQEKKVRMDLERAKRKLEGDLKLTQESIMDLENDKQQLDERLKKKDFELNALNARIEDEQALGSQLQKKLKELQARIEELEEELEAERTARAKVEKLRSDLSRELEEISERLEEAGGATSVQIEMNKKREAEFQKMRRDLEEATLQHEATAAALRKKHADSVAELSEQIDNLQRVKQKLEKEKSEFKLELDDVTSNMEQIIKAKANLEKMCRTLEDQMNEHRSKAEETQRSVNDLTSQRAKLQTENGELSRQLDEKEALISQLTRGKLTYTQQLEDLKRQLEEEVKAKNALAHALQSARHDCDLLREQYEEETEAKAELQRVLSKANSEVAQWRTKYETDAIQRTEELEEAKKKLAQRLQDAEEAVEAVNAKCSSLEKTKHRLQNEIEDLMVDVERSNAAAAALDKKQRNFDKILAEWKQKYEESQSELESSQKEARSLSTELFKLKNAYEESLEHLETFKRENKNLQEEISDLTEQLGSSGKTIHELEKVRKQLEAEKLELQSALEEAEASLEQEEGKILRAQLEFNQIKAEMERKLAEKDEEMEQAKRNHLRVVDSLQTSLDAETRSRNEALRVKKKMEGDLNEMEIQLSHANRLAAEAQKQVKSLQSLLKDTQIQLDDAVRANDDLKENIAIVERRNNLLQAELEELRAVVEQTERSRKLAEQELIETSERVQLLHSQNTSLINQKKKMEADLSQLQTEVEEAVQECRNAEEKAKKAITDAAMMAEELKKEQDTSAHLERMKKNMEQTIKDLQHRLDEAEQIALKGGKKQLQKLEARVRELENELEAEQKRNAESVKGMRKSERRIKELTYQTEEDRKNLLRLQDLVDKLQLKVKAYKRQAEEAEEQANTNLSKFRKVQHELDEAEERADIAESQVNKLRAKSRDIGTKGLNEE
Sequence of bovine cardiac myosin (P85100 whole entry partner): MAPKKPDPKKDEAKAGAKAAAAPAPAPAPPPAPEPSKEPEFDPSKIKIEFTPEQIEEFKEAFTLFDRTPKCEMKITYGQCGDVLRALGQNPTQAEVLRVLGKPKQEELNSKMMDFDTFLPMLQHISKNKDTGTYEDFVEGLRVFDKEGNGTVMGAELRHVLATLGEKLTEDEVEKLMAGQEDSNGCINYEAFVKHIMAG
Sequence of bovine cardiac myosin (Q3SZE5 whole entry partner): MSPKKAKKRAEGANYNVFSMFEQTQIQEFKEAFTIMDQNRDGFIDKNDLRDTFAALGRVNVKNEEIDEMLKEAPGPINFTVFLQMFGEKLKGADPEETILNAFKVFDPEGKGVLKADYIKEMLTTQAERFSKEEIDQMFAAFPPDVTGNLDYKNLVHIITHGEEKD
Assay type: biochemical
Method in brief: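 Values are the concentrations raising the ATPase rate by 20% or 50% over DMSO, from 10-point dose responses fitted with four parameters. Rate is NADH loss at 340 nm via PK/LDH coupling, read 15 min at room temperature, in pH 6.8 PIPES with 50 μM ATP. Bovine cardiac myofibrils were held at pCa ~6 or pCa 10.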
With `CC(C)(C1CCN(C(=O)Nc2ccc(F)nc2)CC1)S(=O)(=O)c1ccc(C#N)cc1` [Compound 109, 4-(2-((4-cyanophenyl)sulfonyl)propan-2-yl)-N-(6-fluoropyridin-3-yl)piperidine-1-carboxamide] the “Myosin Activation (AC20)” value was “+ (+ represents myosin activation value AC20 > 5 μM)”.
With `C[C@@](F)(C1CCN(C(=O)Nc2ccon2)CC1)S(=O)(=O)c1cccc(F)c1` [Compound 285, (S)-4-(1-fluoro-1-((3-fluorophenyl)sulfonyl)ethyl)-N-(isoxazol-3-yl)piperidine-1-carboxamide] the “Myosin Activation (AC20)” value was “+ (+ represents myosin activation value AC20 > 5 μM)”.
For `O=C(Nc1ccnnc1)N1CCC(C(F)(F)S(=O)(=O)c2ccc(C(F)(F)F)c(F)c2)CC1` [Compound 69, 4-(difluoro((3-fluoro-4-(trifluoromethyl)phenyl)sulfonyl)methyl)-N-(pyridazin-4-yl)piperidine-1-carboxamide], the “Myosin Activation (AC20)” value was “++ (++ represents myosin activation value AC20 from 2 μM-5 μM)”.
For `Cn1nc(C(F)(F)F)cc1S(=O)(=O)C(C)(F)C1CCN(C(=O)Nc2ccon2)CC1` (stereo not shown) [Compound 249, 4-(1-fluoro-1-((1-methyl-3-(trifluoromethyl)-1H-pyrazol-5-yl)sulfonyl)ethyl)-N-(isoxazol-3-yl)piperidine-1-carboxamide], the “Myosin Activation (AC20)” value was “++ (++ represents myosin activation value AC20 from 2 μM-5 μM)”.
With `CC(F)(C1CCN(C(=O)Nc2cnns2)CC1)S(=O)(=O)c1cccc(F)c1` (stereo not shown) [Compound 45, 4-(1-fluoro-1-((3-fluorophenyl)sulfonyl)ethyl)-N-(1,2,3-thiadiazol-5-yl)piperidine-1-carboxamide] the “Myosin Activation (AC20)” value was “+++ (+++ represents myosin activation value AC20 < 2 μM)”.
With `CC(C)(C1CCN(C(=O)Nc2cccnc2)CC1)S(=O)(=O)c1cccc(F)c1` [Compound 133, 4-(2-((3-fluorophenyl)sulfonyl)propan-2-yl)-N-(pyridin-3-yl)piperidine-1-carboxamide] the “Myosin Activation (AC20)” value was “++ (++ represents myosin activation value AC20 from 2 μM-5 μM)”.
`Cn1nc(Cl)cc1S(=O)(=O)C(C)(C)C1CCN(C(=O)Nc2ccc(F)nc2)CC1` [Compound 114, 4-(2-((3-chloro-1-methyl-1H-pyrazol-5-yl)sulfonyl)propan-2-yl)-N-(6-fluoropyridin-3-yl)piperidine-1-carboxamide] was tested, and the “Myosin Activation (AC20)” value was “+++ (+++ represents myosin activation value AC20 < 2 μM)”.
With `C[C@H](O)c1cc(NC(=O)N2CCC([C@](C)(F)S(=O)(=O)c3cccc(F)c3)CC2)ccn1` [Compound 302, 4-((R)-1-fluoro-1-((3-fluorophenyl)sulfonyl)ethyl)-N-(2-((S)-1-hydroxyethyl)pyridin-4-yl)piperidine-1-carboxamide] the “Myosin Activation (AC20)” value was “+ (+ represents myosin activation value AC20 > 5 μM)”.
`CC(F)(C1CCN(C(=O)Nc2ccon2)CC1)S(=O)(=O)c1cccc(F)c1` (stereo not shown) [Compound 234, 4-(1-fluoro-1-((3-fluorophenyl)sulfonyl)ethyl)-N-(isoxazol-3-yl)piperidine-1-carboxamide] was tested, and the “Myosin Activation (AC20)” value was “+++ (+++ represents myosin activation value AC20 < 2 μM)”.
In the case of `CC(F)(C1CCN(C(=O)Nc2ccnnc2)CC1)S(=O)(=O)c1ccccc1C(F)(F)F` (stereo not shown) [Compound 57, 4-(1-fluoro-1-((2-(trifluoromethyl)phenyl)sulfonyl)ethyl)-N-(pyridazin-4-yl)piperidine-1-carboxamide], the “Myosin Activation (AC20)” value is reported as “++ (++ represents myosin activation value AC20 from 2 μM-5 μM)”.
With `CC(C)(C1CCN(C(=O)Nc2ccc(Cl)nc2)CC1)S(=O)(=O)c1cccc(F)c1` [Compound 159, N-(6-chloropyridin-3-yl)-4-(2-((3-fluorophenyl)sulfonyl)propan-2-yl)piperidine-1-carboxamide] the “Myosin Activation (AC20)” value was “++ (++ represents myosin activation value AC20 from 2 μM-5 μM)”.
For `Cc1cc(NC(=O)N2CCC([C@](C)(F)S(=O)(=O)c3cc(C(F)(F)F)nn3C)CC2)ccn1` [Compound 232, (R)-4-(1-fluoro-1-((1-methyl-3-(trifluoromethyl)-1H-pyrazol-5-yl)sulfonyl)ethyl)-N-(2-methylpyridin-4-yl)piperidine-1-carboxamide], the “Myosin Activation (AC20)” value was “+++ (+++ represents myosin activation value AC20 < 2 μM)”.
In the case of `Cc1ccccc1S(=O)(=O)C(C)(C)C1CCN(C(=O)Nc2ccns2)CC1` [Compound 213, N-(isothiazol-5-yl)-4-(2-(o-tolylsulfonyl)propan-2-yl)piperidine-1-carboxamide], the “Myosin Activation (AC20)” value is reported as “+++ (+++ represents myosin activation value AC20 < 2 μM)”.
With `CC(F)(C1CCN(C(=O)Nc2cnoc2)CC1)S(=O)(=O)c1cccc(F)c1` (stereo not shown) [Compound 235, 4-(1-fluoro-1-((3-fluorophenyl)sulfonyl)ethyl)-N-(isoxazol-4-yl)piperidine-1-carboxamide] the “Myosin Activation (AC20)” value was “+++ (+++ represents myosin activation value AC20 < 2 μM)”.
`Cn1cc(S(=O)(=O)[C@](C)(F)C2CCN(C(=O)Nc3ccnc(F)c3)CC2)c(C(F)F)n1` [Compound 231, (S)-4-(1-((3-(difluoromethyl)-1-methyl-1H-pyrazol-4-yl)sulfonyl)-1-fluoroethyl)-N-(2-fluoropyridin-4-yl)piperidine-1-carboxamide] was tested, and the “Myosin Activation (AC20)” value was “+ (+ represents myosin activation value AC20 > 5 μM)”.
For `Cn1cc(S(=O)(=O)[C@@](C)(F)C2CCN(C(=O)Nc3cn[nH]c3)CC2)c(C(F)F)n1` [Compound 289, (R)-4-(1-((3-(difluoromethyl)-1-methyl-1H-pyrazol-4-yl)sulfonyl)-1-fluoroethyl)-N-(1H-pyrazol-4-yl)piperidine-1-carboxamide], the “Myosin Activation (AC20)” value was “++ (++ represents myosin activation value AC20 from 2 μM-5 μM)”.
With `CC(F)(C1CCN(C(=O)Nc2ccc(F)nc2)CC1)S(=O)(=O)c1ccc(C#N)cc1` (stereo not shown) [Compound 240, 4-(1-((4-cyanophenyl)sulfonyl)-1-fluoroethyl)-N-(6-fluoropyridin-3-yl)piperidine-1-carboxamide] the “Myosin Activation (AC20)” value was “++ (++ represents myosin activation value AC20 from 2 μM-5 μM)”.
For `[2H]C([2H])([2H])n1cc(S(=O)(=O)[C@](F)(C2CCN(C(=O)Nc3ccon3)CC2)C([2H])([2H])[2H])c(C(F)F)n1` [Compound 305, (S)-4-(1-((3-(difluoromethyl)-1-(methyl-d3)-1H-pyrazol-4-yl)sulfonyl)-1-fluoroethyl-2,2,2-d3)-N-(isoxazol-3-yl)piperidine-1-carboxamide], the “Myosin Activation (AC20)” value was “+ (+ represents myosin activation value AC20 > 5 μM)”.
With `CC(F)(C1CCN(C(=O)Nc2cnns2)CC1)S(=O)(=O)c1ccc(C#N)cc1` (stereo not shown) [Compound 274, 4-(1-((4-cyanophenyl)sulfonyl)-1-fluoroethyl)-N-(1,2,3-thiadiazol-5-yl)piperidine-1-carboxamide] the “Myosin Activation (AC20)” value was “+++ (+++ represents myosin activation value AC20 < 2 μM)”.
With `Cn1nc(C(F)(F)F)cc1S(=O)(=O)C(C)(C)C1CCN(C(=O)Nc2ccon2)CC1` [Compound 126, N-(isoxazol-3-yl)-4-(2-((1-methyl-3-(trifluoromethyl)-1H-pyrazol-5-yl)sulfonyl)propan-2-yl)piperidine-1-carboxamide] the “Myosin Activation (AC20)” value was “++ (++ represents myosin activation value AC20 from 2 μM-5 μM)”.
With `Cc1ccccc1S(=O)(=O)C1(C2CCN(C(=O)Nc3ccncc3)CC2)CC1` [Compound 202, N-(pyridin-4-yl)-4-(1-(o-tolylsulfonyl)cyclopropyl)piperidine-1-carboxamide] the “Myosin Activation (AC20)” value was “+++ (+++ represents myosin activation value AC20 < 2 μM)”.
With `Cc1ccccc1S(=O)(=O)C(C)(F)C1CCN(C(=O)Nc2ccnnc2)CC1` (stereo not shown) [Compound 53, 4-(1-fluoro-1-(o-tolylsulfonyl)ethyl)-N-(pyridazin-4-yl)piperidine-1-carboxamide] the “Myosin Activation (AC20)” value was “+++ (+++ represents myosin activation value AC20 < 2 μM)”.
`C[C@](F)(C1CCN(C(=O)Nc2ccc(C#N)nc2)CC1)S(=O)(=O)c1cccc(F)c1` [Compound 292, (R)-N-(6-cyanopyridin-3-yl)-4-(1-fluoro-1-((3-fluorophenyl)sulfonyl)ethyl)piperidine-1-carboxamide] was tested, and the “Myosin Activation (AC20)” value was “++ (++ represents myosin activation value AC20 from 2 μM-5 μM)”.
In the case of `Cn1cnc(S(=O)(=O)C2(C3CCN(C(=O)Nc4ccnnc4)CC3)CCC2)c1` [Compound 173, 4-(1-((1-methyl-1H-imidazol-4-yl)sulfonyl)cyclobutyl)-N-(pyridazin-4-yl)piperidine-1-carboxamide], the “Myosin Activation (AC20)” value is reported as “+ (+ represents myosin activation value AC20 > 5 μM)”.
In the case of `Cn1cc(S(=O)(=O)C(C)(C)C2CCN(C(=O)Nc3ccc(F)nc3)CC2)c(C(F)F)n1` [Compound 117, 4-(2-((3-(difluoromethyl)-1-methyl-1H-pyrazol-4-yl)sulfonyl)propan-2-yl)-N-(6-fluoropyridin-3-yl)piperidine-1-carboxamide], the “Myosin Activation (AC20)” value is reported as “++ (++ represents myosin activation value AC20 from 2 μM-5 μM)”.
In the case of `Cc1ccc(NC(=O)N2CCC(C(C)(C)S(=O)(=O)c3ccnn3C)CC2)cn1` [Compound 135, 4-(2-((1-methyl-1H-pyrazol-5-yl)sulfonyl)propan-2-yl)-N-(6-methylpyridin-3-yl)piperidine-1-carboxamide], the “Myosin Activation (AC20)” value is reported as “+ (+ represents myosin activation value AC20 > 5 μM)”.
With `Cn1cc(S(=O)(=O)C(F)(F)C2CCN(C(=O)Nc3ccnc(CO)c3)CC2)c(C(F)F)n1` [Compound 101, 4-(((3-(difluoromethyl)-1-methyl-1H-pyrazol-4-yl)sulfonyl)difluoromethyl)-N-(2-(hydroxymethyl)pyridin-4-yl)piperidine-1-carboxamide] the “Myosin Activation (AC20)” value was “++ (++ represents myosin activation value AC20 from 2 μM-5 μM)”.
With `N#Cc1ccc(S(=O)(=O)C2(C3CCN(C(=O)Nc4ccnnc4)CC3)CCC2)cc1` [Compound 164, 4-(1-((4-cyanophenyl)sulfonyl)cyclobutyl)-N-(pyridazin-4-yl)piperidine-1-carboxamide] the “Myosin Activation (AC20)” value was “+++ (+++ represents myosin activation value AC20 < 2 μM)”.

— patent US11123337B2, “4-methylsulfonyl-substituted piperidine urea compounds” (MYOKARDIA, INC., priority 2015, dated 2021)
